From patent US20240158446A1, “CYCLIC COMPOUND HAVING SELECTIVE INHIBITORY ACTION ON KRAS OVER HRAS AND NRAS” (CHUGAI SEIYAKU KABUSHIKI KAISHA, priority 2021, published 2024)
*1 amine or outer side, *2 acyl side, *3 side chain or, on linkers, in order; H or OH if unused. Where a SMILES comes first, the peptide text is derived from it. Bridges are numbered along the chain shown (N, C = ends). [ ]: non-standard residue; d: D form. The star is where a group is joined. hPhe(3-Cl-4-CF3) = N[C@@H](CCc1ccc(C(F)(F)F)c(Cl)c1)C(=O)O; NPrPhe(4-CF3) = CCCN[C@@H](Cc1ccc(C(F)(F)F)cc1)C(=O)O; NEtAsp = CCN([C@@H](CC(=O)[*:3])C(=O)[*:2])[*:1]; NMeGly(cPent) = CN[C@H](C(=O)O)C1CCCC1; NEtLeu = CCN[C@@H](CC(C)C)C(=O)O; NMeD = CN[C@@H](CC(=O)O)C(=O)O; NMeL = CN[C@@H](CC(C)C)C(=O)O; Morpholide = C1CN(*)CCO1; Ac5c = NC1(C(=O)O)CCCC1; Ac4c = NC1(C(=O)O)CCC1; Sar = CNCC(=O)O

Tests used:
[1] = tested on: human lung cancer strain NCI-H441; assay: cells; details: NCI-H441, 96 h, read-out: NCI-H441 IC50 (nM), NCI-H441 cell proliferation, 4 days, CellTiter-Glo;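 also: cell proliferation inhibition after four days measured by CellTiter-Glo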
[2] = biological target: GDP-bound KRAS wild-type protein (Homo sapiens, UniProt P01116); assay: Binding to KRAS by surface plasmon resonance (SPR), Single Cycle Kinetics; details: SPR, Single Cycle Kinetics, GDP-bound KRAS wild-type protein; read-out: KRAS KD
[3] = biological target: GDP-bound NRAS wild-type protein (Homo sapiens, UniProt P01111); assay: Binding to NRAS by surface plasmon resonance (SPR), Single Cycle Kinetics; details: ratio of KD for GDP-bound NRAS wild-type protein to KD for KRAS, SPR
[4] = biological target: GDP-bound HRAS wild-type protein (Homo sapiens, UniProt P01112); assay: Binding to HRAS by surface plasmon resonance (SPR), Single Cycle Kinetics; details: ratio of KD for GDP-bound HRAS wild-type protein to KD for KRAS, SPR
GDP-bound HRAS wild-type protein, sequence (P01112 whole entry): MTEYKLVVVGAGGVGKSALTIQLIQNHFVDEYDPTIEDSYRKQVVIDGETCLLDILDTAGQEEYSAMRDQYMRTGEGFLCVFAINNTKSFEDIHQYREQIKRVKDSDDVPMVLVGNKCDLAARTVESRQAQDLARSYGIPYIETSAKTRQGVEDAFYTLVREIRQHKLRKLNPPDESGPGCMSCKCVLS

GDP-bound KRAS wild-type protein, sequence (P01116 whole entry): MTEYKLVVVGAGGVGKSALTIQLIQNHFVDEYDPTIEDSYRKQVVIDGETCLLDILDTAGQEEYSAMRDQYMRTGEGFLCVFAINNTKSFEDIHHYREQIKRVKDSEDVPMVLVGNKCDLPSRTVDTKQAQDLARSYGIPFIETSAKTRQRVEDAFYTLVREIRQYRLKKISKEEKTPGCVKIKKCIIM
GDP-bound NRAS wild-type protein, sequence (P01111 whole entry): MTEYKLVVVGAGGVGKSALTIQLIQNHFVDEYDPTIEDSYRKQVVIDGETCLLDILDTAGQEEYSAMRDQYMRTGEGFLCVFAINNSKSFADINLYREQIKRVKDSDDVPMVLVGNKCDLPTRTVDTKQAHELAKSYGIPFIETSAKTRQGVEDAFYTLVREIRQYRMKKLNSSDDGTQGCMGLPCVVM

SMILES	IC50 [1]	Kd [2]	NRAS/KRAS (KD ratio) [3]	HRAS/KRAS (KD ratio) [4]
CCCN1C(=O)CN(C)C(=O)CN(C)C(=O)[C@H]([C@@H](C)CC)NC(=O)[C@H](CC(C)C)N(C)C(=O)C[C@@H](C(=O)N2CCOCC2)N(CC)C(=O)[C@H](C2CCCC2)N(C)C(=O)C2(CCC2)NC(=O)[C@@H]2CCCN2C(=O)[C@H](CCc2ccc(C(F)(F)F)c(Cl)c2)NC(=O)CN(C)C(=O)[C@@H]1Cc1ccc(C(F)(F)F)cc1 [PP1953] ([NMeL]I[Sar][Sar][NPrPhe(4-CF3)][Sar][hPhe(3-Cl-4-CF3)]P[Ac4c][NMeGly(cPent)][NEtAsp]-Morpholide; lactam N-11)	8.7 nM	0.42 nM	B (a compound having 3 or more and less than 10 is denoted as B)	B (a compound having 3 or more and less than 10 is denoted as B)
CCCN(C)C(=O)[C@@H]1CC(=O)N(C)[C@@H](CC(F)F)C(=O)N[C@@H]([C@@H](C)CC)C(=O)N(C)CC(=O)N(C)[C@H]2C/C=C\CCN(C2=O)[C@@H](Cc2ccc(C(F)(F)F)cc2)C(=O)N(C)CC(=O)N[C@@H](CCc2cc(F)c(C(F)(F)F)c(F)c2)C(=O)N2C[C@H](F)C[C@H]2C(=O)NC2(CC(C)(C)C2)C(=O)N(C)[C@@H](C2CCCC2)C(=O)N1C [PP1687]	2.7 nM	0.075 nM	A (a compound having 10 or more and less than 20 is denoted as A)	A (a compound having 10 or more and less than 20 is denoted as A)
CCO[C@@H]1C[C@H]2C(=O)NC3(CC(C)(C)C3)C(=O)N(C)[C@@H](C3CCCC3)C(=O)N(C)[C@H](C(=O)N(C)CC)CC(=O)N(C)[C@@H](C3CCC3)C(=O)N[C@@H]([C@@H](C)CC)C(=O)N(C)CC(=O)N(C)[C@H]3C/C=C\CCN(C3=O)[C@@H](Cc3ccc(C(F)(F)F)cc3)C(=O)N(C)CC(=O)N[C@@H](CCc3ccc(C(F)(F)F)c(OC)c3)C(=O)N2C1 [PP1985]	17.7 nM	0.23 nM		B (a compound having 3 or more and less than 10 is denoted as B)
CC[C@H](C)[C@@H]1NC(=O)[C@H](CC2CC2)N(C)C(=O)C[C@@H](C(=O)N(C)CC)N(C)C(=O)[C@H](C2CCCC2)N(C)C(=O)C2(CCC2)NC(=O)[C@@H]2C[C@@H](C)CN2C(=O)[C@H](CCc2ccc(C(F)(F)F)c(OC)c2)NC(=O)CN(C)C(=O)[C@H](Cc2ccc(C)cc2)N2CC/C=C\C[C@@H](C2=O)N(C)C(=O)CN(C)C1=O [PP1900]	24.7 nM	0.17 nM		
CCCOC[C@H]1C(=O)N[C@@H]([C@@H](C)CC)C(=O)N(C)CC(=O)N(C)[C@H]2C/C=C\CCN(C2=O)[C@@H](Cc2ccc(C(F)(F)F)cc2)C(=O)N(C)CC(=O)N[C@@H](CCc2cc(F)c(C(F)(F)F)c(F)c2)C(=O)N2C[C@@H](C)C[C@H]2C(=O)NC2(CCC2)C(=O)N(C)[C@@H](C2CCCC2)C(=O)N(C)[C@H](C(=O)N(C)CCC)CC(=O)N1C [PP2008]	15.2 nM		A (a compound having 10 or more and less than 20 is denoted as A)	A (a compound having 10 or more and less than 20 is denoted as A)
CCO[C@@H]1C[C@H]2C(=O)NC3(CCC3)C(=O)N(C)[C@@H](C(CC)CC)C(=O)N(C)[C@H](C3CCC3)CC(=O)N(C)[C@@H](CC3CC3)C(=O)N[C@@H]([C@@H](C)CC)C(=O)N(C)CC(=O)N(C)[C@H]3C/C=C\CCN(C3=O)[C@@H](Cc3ccc(C(F)(F)F)cc3)C(=O)N(C)CC(=O)N[C@@H](CCc3cc(F)c(C(F)(F)F)c(F)c3)C(=O)N2C1 [PP1636]	95.2 nM		A (a compound having 10 or more and less than 20 is denoted as A)	A (a compound having 10 or more and less than 20 is denoted as A)
CCCN(C)C(=O)[C@@H]1CC(=O)N(C)[C@@H](CC(F)F)C(=O)N[C@@H]([C@@H](C)CC)C(=O)N(C)CC(=O)N(C)[C@H]2C/C=C\CCN(C2=O)[C@@H](Cc2ccc(C(F)(F)F)cc2)C(=O)N(C)CC(=O)N[C@@H](CCc2ccc(C(F)(F)F)c(OC)c2)C(=O)N2C[C@@H](C)C[C@H]2C(=O)NC2(CCC2)C(=O)N(C)[C@@H](C2CCCC2)C(=O)N1C [PP2024]	10.1 nM		A (a compound having 10 or more and less than 20 is denoted as A)	B (a compound having 3 or more and less than 10 is denoted as B)

More lines, in order of falling IC50 [1], values ahead:

IC50 [1]	Kd [2]	SMILES	NRAS/KRAS (KD ratio) [3]	HRAS/KRAS (KD ratio) [4]
22.5 nM	0.11 nM	CCC[C@H]1C(=O)N[C@@H]([C@@H](C)CC)C(=O)N(C)CC(=O)N(C)[C@H]2C/C=C\CCN(C2=O)[C@@H](Cc2ccc(C)cc2)C(=O)N(C)CC(=O)N[C@@H](CCc2ccc(C(F)(F)F)c(Cl)c2)C(=O)N2C[C@@H](C)C[C@H]2C(=O)NC2(CCC2)C(=O)N(C)[C@@H](C2CCCC2)C(=O)N(C)[C@H](C(=O)N(C)CC)CC(=O)N1C [PP1848]		
20.2 nM	0.12 nM	CC[C@H](C)[C@@H]1NC(=O)[C@H](CC)N(C)C(=O)C[C@@H](C(=O)N(C)CC)N(C)C(=O)[C@H](C2CCCC2)N(C)C(=O)C2(CC(C)(C)C2)NC(=O)[C@@H]2C[C@H](C)CN2C(=O)[C@H](CCc2cc(F)c(C(F)(F)F)c(F)c2)NC(=O)CN(C)C(=O)[C@H](Cc2ccc(C)cc2)N2CC/C=C\C[C@@H](C2=O)N(C)C(=O)CN(C)C1=O [PP1882]		
13.3 nM	0.23 nM	CCCN(C)C(=O)[C@@H]1CC(=O)N(C)[C@@H](COC)C(=O)N[C@@H]([C@@H](C)CC)C(=O)N(C)CC(=O)N(C)[C@H]2C/C=C\CCN(C2=O)[C@@H](Cc2ccc(C(F)(F)F)cc2)C(=O)N(C)CC(=O)N[C@@H](CCc2cc(F)c(Cl)c(F)c2)C(=O)N2C[C@H](OCC)C[C@H]2C(=O)NC2(CC(C)(C)C2)C(=O)N(C)[C@@H](C2CCCC2)C(=O)N1C [PP1763]	A (a compound having 10 or more and less than 20 is denoted as A)	A (a compound having 10 or more and less than 20 is denoted as A)
10.9 nM	0.36 nM	CCCN1C(=O)CN(C)C(=O)CNC(=O)[C@H]([C@@H](C)CC)NC(=O)[C@H](CC(C)C)N(CC)C(=O)C[C@@H](C(=O)N2CCOCC2)N(C)C(=O)[C@H](C2CCCC2)N(C)C(=O)C2(CCCC2)NC(=O)[C@@H]2CCCN2C(=O)[C@H](CCc2ccc(C(F)(F)F)c(Cl)c2)NC(=O)CN(C)C(=O)[C@@H]1Cc1ccc(C(F)(F)F)cc1 [PP1967] ([NEtLeu]IG[Sar][NPrPhe(4-CF3)][Sar][hPhe(3-Cl-4-CF3)]P[Ac5c][NMeGly(cPent)][NMeD]-Morpholide; lactam N-11)	B (a compound having 3 or more and less than 10 is denoted as B)	B (a compound having 3 or more and less than 10 is denoted as B)
8.2 nM	0.11 nM	CCCOC[C@H]1C(=O)N[C@@H]([C@@H](C)CC)C(=O)N(C)CC(=O)N(C)[C@H]2C/C=C\CCN(C2=O)[C@@H](Cc2ccc(C(F)(F)F)cc2)C(=O)N(C)CC(=O)N[C@@H](CCc2ccc(C(F)(F)F)c(OC)c2)C(=O)N2C[C@H](OCC)C[C@H]2C(=O)NC2(CCC2)C(=O)N(C)[C@@H](C2CCCC2)C(=O)N(C)[C@H](C(=O)N(C)CC)CC(=O)N1C [PP2016]	A (a compound having 10 or more and less than 20 is denoted as A)	A (a compound having 10 or more and less than 20 is denoted as A)
7.7 nM	0.083 nM	CC[C@H](C)[C@@H]1NC(=O)[C@H](CC(F)F)N(C)C(=O)C[C@@H](C(=O)N(C)C)N(C)C(=O)[C@H](C2CCCC2)N(C)C(=O)C2(CC(C)(C)C2)NC(=O)[C@@H]2C[C@H](C)CN2C(=O)[C@H](CCc2ccc(C(F)(F)F)c(OC)c2)NC(=O)CN(C)C(=O)[C@H](Cc2ccc(C)cc2)N2CC/C=C\C[C@@H](C2=O)N(C)C(=O)CN(C)C1=O [PP1875]		
3.4 nM	0.042 nM	C#CC[C@H]1C(=O)N[C@@H]([C@@H](C)CC)C(=O)N(C)CC(=O)N(C)[C@H]2C/C=C\CCN(C2=O)[C@@H](Cc2ccc(C(F)(F)F)cc2)C(=O)N(C)CC(=O)N[C@@H](CCc2ccc(C(F)(F)F)c(OC)c2)C(=O)N2C[C@H](OCC)C[C@H]2C(=O)NC2(CC(C)(C)C2)C(=O)N(C)[C@@H](C2CCCC2)C(=O)N(C)[C@H](C(=O)N(C)C)CC(=O)N1C [PP1677]	A (a compound having 10 or more and less than 20 is denoted as A)	A (a compound having 10 or more and less than 20 is denoted as A)
1.7 nM	0.03 nM	CCO[C@@H]1C[C@H]2C(=O)N(C)C3(CCC3)C(=O)N(C)[C@@H](C3CCCC3)C(=O)N(C)[C@H](C(=O)N(C)C)CC(=O)N(C)[C@@H](CC(C)C)C(=O)N[C@@H]([C@@H](C)CC)C(=O)N(C)CC(=O)N(C)[C@H]3C/C=C\CCN(C3=O)[C@@H](Cc3ccc(C)cc3)C(=O)N(C)CC(=O)N[C@@H](CCc3cc(F)c(C(F)(F)F)c(F)c3)C(=O)N2C1 [PP1790]	A (a compound having 10 or more and less than 20 is denoted as A)	B (a compound having 3 or more and less than 10 is denoted as B)
1.4 nM	0.11 nM	CC[C@H](C)[C@@H]1NC(=O)[C@H](CC)N(C)C(=O)C[C@@H](C(=O)N(C)C)N(C)C(=O)[C@H](C2CCCC2)N(C)C(=O)C2(CC(C)(C)C2)NC(=O)[C@@H]2C[C@H](C)CN2C(=O)[C@H](CCc2cc(F)c(C(F)(F)F)c(F)c2)NC(=O)CN(C)C(=O)[C@H](Cc2ccc(C)cc2)N2CC/C=C\C[C@@H](C2=O)N(C)C(=O)CN(C)C1=O [PP1856]	A (a compound having 10 or more and less than 20 is denoted as A)	A (a compound having 10 or more and less than 20 is denoted as A)
